# Laboratory results reported in ChEMBL document CHEMBL1201861, “Genomics of Drug Sensitity in Cancer screening data, Wellcome Trust Sanger Institute”.
# Assays:
# Test in all cases: cells
# [1] = test system: CHP-212; assay type: functional, cell-based, Homo sapiens; conditions: Homo sapiens, CHP-212
# Description: SANGER: Inhibition of human CHP-212 cell growth in a cell viability assay.
# [2] = test system: G-401; assay type: functional, cell-based, Homo sapiens; conditions: Homo sapiens, G-401
# Description: SANGER: Inhibition of human G-401 cell growth in a cell viability assay.
# [3] = test system: SW 962; assay type: functional, cell-based, Homo sapiens; conditions: Homo sapiens, SW 962;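 further: growth inhibition of human SW962 cells, read out by a cell viability assay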
# Description: SANGER: Inhibition of human SW962 cell growth in a cell viability assay.
# [4] = test system: A388; assay type: functional, cell-based, Homo sapiens; conditions: Homo sapiens, A388;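 further: growth inhibition of human A388 cells, read out with a cell viability assay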
# Description: SANGER: Inhibition of human A388 cell growth in a cell viability assay.
# [5] = test system: K562; assay type: functional, cell-based; conditions: Homo sapiens
# Description: SANGER: Inhibition of human K-562 cell growth in a cell viability assay.
# [6] = test system: ME-180; assay type: functional, cell-based; conditions: Homo sapiens;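 further: cell viability assay measuring growth inhibition of ME-180 cells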
# Description: SANGER: Inhibition of human ME-180 cell growth in a cell viability assay.
# [7] = test system: NB17; assay type: functional, cell-based; conditions: Homo sapiens;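 further: growth inhibition of NB17 cells, read out with a cell viability assay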
# Description: SANGER: Inhibition of human NB17 cell growth in a cell viability assay.
# [8] = test system: MFH-ino; assay type: functional, cell-based; conditions: Homo sapiens;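 further: growth inhibition of human MFH-ino cells, read out by a cell viability assay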
# Description: SANGER: Inhibition of human MFH-ino cell growth in a cell viability assay.
# [9] = test system: G-402; assay type: functional, cell-based, Homo sapiens; conditions: Homo sapiens, G-402
# Description: SANGER: Inhibition of human G-402 cell growth in a cell viability assay.
# [10] = test system: FTC-133; assay type: functional, cell-based, Homo sapiens; conditions: Homo sapiens, FTC-133
# [11] = test system: TGBC1TKB; assay type: functional, cell-based, Homo sapiens; conditions: Homo sapiens, TGBC1TKB;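 further: growth inhibition of TGBC1TKB cells, read out by a cell viability assay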
# Description: SANGER: Inhibition of human TGBC1TKB cell growth in a cell viability assay.
# [12] = test system: NB5; assay type: functional, cell-based, Homo sapiens; conditions: Homo sapiens, NB5;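 further: growth inhibition of NB5 cells, read out as cell viability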
# Description: SANGER: Inhibition of human NB5 cell growth in a cell viability assay.
# [13] = test system: SBC-5; assay type: functional, cell-based, Homo sapiens; conditions: Homo sapiens, SBC-5;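 further: cell viability assay read-out, IC50 is the concentration that inhibits growth of the cells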
# Description: SANGER: Inhibition of human SBC-5 cell growth in a cell viability assay.
# [14] = test system: CWR22R; assay type: functional, cell-based, Homo sapiens; conditions: Homo sapiens, 22Rv1;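 further: growth inhibition of 22Rv1 cells, read out with a cell viability assay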
# Description: SANGER: Inhibition of human 22RV1 cell growth in a cell viability assay.
# [15] = test system: MKN-45; assay type: functional, cell-based, Homo sapiens; conditions: Homo sapiens, MKN-45;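 further: growth inhibition of human MKN-45 cells, measured with a cell viability assay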
# [16] = test system: HLE; assay type: functional, cell-based, Homo sapiens; conditions: Homo sapiens, HLE;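 further: growth inhibition of human HLE cells, read out by a cell viability assay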
# Description: SANGER: Inhibition of human HLE cell growth in a cell viability assay.
# [17] = test system: NB10; assay type: functional, cell-based, Homo sapiens; conditions: Homo sapiens, NB10;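 further: growth inhibition of NB10 cells, read out by a cell viability assay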
# Description: SANGER: Inhibition of human NB10 cell growth in a cell viability assay.
# [18] = test system: BFTC-905; assay type: functional, cell-based, Homo sapiens; conditions: Homo sapiens, BFTC-905
# Description: SANGER: Inhibition of human BFTC-905 cell growth in a cell viability assay.
# [19] = test system: ES4; assay type: functional, cell-based, Homo sapiens; conditions: Homo sapiens, ES4;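 further: growth inhibition of human ES4 cells, read out by a cell viability assay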
# Description: SANGER: Inhibition of human ES4 cell growth in a cell viability assay.
# [20] = test system: MG-63; assay type: functional, cell-based, Homo sapiens; conditions: Homo sapiens, MG-63;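 further: growth inhibition of human MG-63 cells, read out with a cell viability assay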
# Description: SANGER: Inhibition of human MG-63 cell growth in a cell viability assay.
# [21] = test system: C2BBe1; assay type: functional, cell-based, Homo sapiens; conditions: Homo sapiens, C2BBe1;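 further: growth inhibition of C2BBe1 cells, read out through a viability assay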
# Description: SANGER: Inhibition of human C2BBe1 cell growth in a cell viability assay.
# [22] = test system: IGR-1; assay type: functional, cell-based, Homo sapiens; conditions: Homo sapiens, IGR-1;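 further: growth inhibition of human IGR-1 cells, read out with a cell viability assay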
# Description: SANGER: Inhibition of human IGR-1 cell growth in a cell viability assay.
# [23] = test system: NCI-H2405; assay type: functional, cell-based, Homo sapiens; conditions: Homo sapiens, NCI-H2405;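 further: growth inhibition of the human cell line, read out with a cell viability assay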
# Description: SANGER: Inhibition of human NCI-H2405 cell growth in a cell viability assay.
# [24] = test system: HH; assay type: functional, cell-based; conditions: Homo sapiens
# Description: SANGER: Inhibition of human HH cell growth in a cell viability assay.
# [25] = test system: BHT-101; assay type: functional, cell-based, Homo sapiens; conditions: Homo sapiens, BHT-101
# [26] = test system: NCI-H82; assay type: functional, cell-based; conditions: Homo sapiens;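 further: growth inhibition of NCI-H82 cells, measured with a cell viability readout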
# Description: SANGER: Inhibition of human NCI-H82 cell growth in a cell viability assay.
# [27] = test system: 786-0; assay type: functional, cell-based, Homo sapiens; conditions: Homo sapiens
# Description: SANGER: Inhibition of human 786-0 cell growth in a cell viability assay.
# [28] = test system: EFO-21; assay type: functional, cell-based, Homo sapiens; conditions: Homo sapiens, EFO-21;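 further: growth inhibition of EFO-21 cells measured with a viability assay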
# Description: SANGER: Inhibition of human EFO-21 cell growth in a cell viability assay.
# [29] = test system: HAL-01; assay type: functional, cell-based; conditions: Homo sapiens;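 further: growth inhibition of human HAL-01 cells, read out with a cell viability assay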
# Description: SANGER: Inhibition of human HAL-01 cell growth in a cell viability assay.
# [30] = test system: ES3; assay type: functional, cell-based, Homo sapiens; conditions: Homo sapiens, ES3;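 further: growth inhibition of ES3 cells, read out with a cell viability assay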
# [31] = test system: LC-2-ad; assay type: functional, cell-based, Homo sapiens; conditions: Homo sapiens, LC-2-ad;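 further: growth inhibition of human LC-2-ad cells, read out with a cell viability assay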
# Description: SANGER: Inhibition of human LC-2-ad cell growth in a cell viability assay.
# [32] = test system: Hs-578T; assay type: functional, cell-based, Homo sapiens; conditions: Homo sapiens, Hs-578T
# Description: SANGER: Inhibition of human Hs-578-T cell growth in a cell viability assay.
# [33] = test system: A498; assay type: functional, cell-based, Homo sapiens; conditions: Homo sapiens, A498;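 further: growth inhibition of human A498 cells, read out with a cell viability assay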
# Description: SANGER: Inhibition of human A498 cell growth in a cell viability assay.
# [34] = test system: A4-Fuk; assay type: functional, cell-based; conditions: Homo sapiens;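 further: growth inhibition of A4-Fuk cells, read out by a cell viability assay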
# Description: SANGER: Inhibition of human A4-Fuk cell growth in a cell viability assay.
# [35] = test system: MFE-280; assay type: functional, cell-based, Homo sapiens; conditions: Homo sapiens, MFE-280;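 further: growth inhibition of MFE-280 cells, determined with a cell viability readout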
# Description: SANGER: Inhibition of human MFE-280 cell growth in a cell viability assay.
# [36] = test system: CAL-120; assay type: functional, cell-based, Homo sapiens; conditions: Homo sapiens, CAL-120;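 further: cell growth inhibition, read out as cell viability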
# Description: SANGER: Inhibition of human CAL-120 cell growth in a cell viability assay.
# [37] = test system: SN12C; assay type: functional, cell-based, Homo sapiens; conditions: Homo sapiens, SN12C;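 further: growth inhibition of human SN12C cells, measured by a cell viability assay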
# Description: SANGER: Inhibition of human SN12C cell growth in a cell viability assay.
# [38] = test system: PANC-03-27; assay type: functional, cell-based, Homo sapiens; conditions: Homo sapiens, PANC-03-27
# Description: SANGER: Inhibition of human PANC-03-27 cell growth in a cell viability assay.
# [39] = test system: SF-268; assay type: functional, cell-based, Homo sapiens; conditions: Homo sapiens, SF-268;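 further: growth inhibition of SF-268 cells determined with a cell viability assay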
# Description: SANGER: Inhibition of human SF268 cell growth in a cell viability assay.
# [40] = test system: TYK-nu; assay type: functional, cell-based, Homo sapiens; conditions: Homo sapiens, TYK-nu;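 further: growth inhibition of human TYK-nu cells, read out by a cell viability assay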
# Description: SANGER: Inhibition of human TYK-nu cell growth in a cell viability assay.
# [41] = test system: SW 954; assay type: functional, cell-based, Homo sapiens; conditions: Homo sapiens, SW 954;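 further: growth inhibition of SW954 human cancer cells, read out as cell viability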
# Description: SANGER: Inhibition of human SW954 cell growth in a cell viability assay.
# [42] = test system: SW-620; assay type: functional, cell-based, Homo sapiens; conditions: Homo sapiens, SW-620;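 further: growth inhibition of human SW-620 cells, measured by a cell viability assay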
# Description: SANGER: Inhibition of human SW620 cell growth in a cell viability assay.
# [43] = test system: EW-1; assay type: functional, cell-based, Homo sapiens; conditions: Homo sapiens, EW-1;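 further: growth inhibition of the human EW-1 cell line, read out by a cell viability assay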
# Description: SANGER: Inhibition of human EW-1 cell growth in a cell viability assay.
# [44] = test system: D283 Med; assay type: functional, cell-based, Homo sapiens; conditions: Homo sapiens, D283 Med
# Description: SANGER: Inhibition of human D-283MED cell growth in a cell viability assay.
# [45] = test system: SF-126; assay type: functional, cell-based, Homo sapiens; conditions: Homo sapiens, SF-126;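 further: growth inhibition of human SF126 cells, read out with a cell viability assay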
# Description: SANGER: Inhibition of human SF126 cell growth in a cell viability assay.
# [46] = test system: HT-3; assay type: functional, cell-based, Homo sapiens; conditions: Homo sapiens, HT-3;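 further: growth inhibition measured with a cell viability readout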
# Description: SANGER: Inhibition of human HT-3 cell growth in a cell viability assay.
# [47] = test system: NH-12; assay type: functional, cell-based, Homo sapiens; conditions: Homo sapiens, NH-12;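 further: growth inhibition of NH-12 cells, read out with a cell viability assay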
# Description: SANGER: Inhibition of human NH-12 cell growth in a cell viability assay.
# [48] = test system: TE-6; assay type: functional, cell-based, Homo sapiens; conditions: Homo sapiens, TE-6;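 further: growth inhibition of TE-6 cells, read out with a cell viability assay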
# Description: SANGER: Inhibition of human TE-6 cell growth in a cell viability assay.
# [49] = test system: NCI-H441; assay type: functional, cell-based; conditions: Homo sapiens;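 further: growth inhibition of NCI-H441 cells, read out with a cell viability assay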
# Description: SANGER: Inhibition of human NCI-H441 cell growth in a cell viability assay.
# [50] = test system: VMRC-RCZ; assay type: functional, cell-based; conditions: Homo sapiens;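 further: growth inhibition measured with a cell viability assay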
# [51] = test system: QIMR-WIL; assay type: functional, cell-based; conditions: Homo sapiens;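 further: growth inhibition of QIMR-WIL cells, read out with a cell viability assay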
# Description: SANGER: Inhibition of human QIMR-WIL cell growth in a cell viability assay.
# [52] = test system: SKG-IIIa; assay type: functional, cell-based, Homo sapiens; conditions: Homo sapiens, SKG-IIIa;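 further: cell growth inhibition, read out with a cell viability assay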
# Description: SANGER: Inhibition of human SKG-IIIa cell growth in a cell viability assay.
compound,measurement,setting,value
O=C(NOCC1CC1)c1ccc(F)c(F)c1Nc1ccc(I)cc1Cl [CI-1040],IC50,[1],0.0289 µM
same,IC50,[2],> 10 µM
same,IC50,[3],> 10 µM
same,IC50,[4],> 10 µM
same,IC50,[5],8.84 µM
same,IC50,[6],5.58 µM
same,IC50,[7],> 10 µM
same,IC50,[8],> 10 µM
same,IC50,[9],> 10 µM
same,IC50,[10],> 10 µM
same,IC50,[11],7.89 µM
same,IC50,[12],4.6 µM
same,IC50,[13],> 10 µM
same,IC50,[14],> 10 µM
same,IC50,[15],9.45 µM
same,IC50,[16],> 10 µM
same,IC50,[17],5.89 µM
same,IC50,[18],2.83 µM
same,IC50,[19],8.87 µM
same,IC50,[20],> 10 µM
same,IC50,[21],0.81 µM
same,IC50,[22],> 10 µM
same,IC50,[23],> 10 µM
same,IC50,[24],4.42 µM
same,IC50,[25],0.286 µM
same,IC50,[26],> 10 µM
same,IC50,[27],3.27 µM
same,IC50,[28],> 10 µM
same,IC50,[29],> 10 µM
same,IC50,[30],> 10 µM
same,IC50,[31],> 10 µM
same,IC50,[32],5.54 µM
same,IC50,[33],> 10 µM
same,IC50,[34],1.57 µM
same,IC50,[35],6.86 µM
same,IC50,[36],> 10 µM
same,IC50,[37],3.25 µM
same,IC50,[38],3.35 µM
same,IC50,[39],> 10 µM
same,IC50,[40],1.03 µM
same,IC50,[41],8.97 µM
same,IC50,[42],1.14 µM
same,IC50,[43],> 10 µM
same,IC50,[44],> 10 µM
same,IC50,[45],> 10 µM
same,IC50,[46],> 10 µM
same,IC50,[47],4.72 µM
same,IC50,[48],> 10 µM
same,IC50,[49],> 10 µM
same,IC50,[50],> 10 µM
same,IC50,[51],> 10 µM
same,IC50,[52],> 10 µM
Cn1cc(C2=C(c3ccc(Cl)cc3Cl)C(=O)NC2=O)c2ccccc21 [SB-216763],IC50,[1],> 10 µM
same,IC50,[2],> 10 µM
same,IC50,[3],> 10 µM
same,IC50,[4],> 10 µM
same,IC50,[5],> 10 µM
same,IC50,[6],> 10 µM
same,IC50,[7],> 10 µM
same,IC50,[8],> 10 µM
same,IC50,[9],> 10 µM
same,IC50,[10],> 10 µM
same,IC50,[11],> 10 µM
same,IC50,[12],> 10 µM
same,IC50,[13],> 10 µM
same,IC50,[14],> 10 µM
same,IC50,[15],> 10 µM
same,IC50,[16],> 10 µM
same,IC50,[17],> 10 µM
same,IC50,[18],> 10 µM
same,IC50,[19],> 10 µM
same,IC50,[20],> 10 µM
same,IC50,[21],> 10 µM
same,IC50,[22],> 10 µM
same,IC50,[23],> 10 µM
same,IC50,[24],> 10 µM
same,IC50,[25],> 10 µM
same,IC50,[26],> 10 µM
same,IC50,[27],> 10 µM
same,IC50,[28],> 10 µM
same,IC50,[29],> 10 µM
same,IC50,[30],> 10 µM
same,IC50,[31],> 10 µM
same,IC50,[32],> 10 µM
same,IC50,[33],> 10 µM
same,IC50,[34],> 10 µM
same,IC50,[35],> 10 µM
same,IC50,[36],> 10 µM
same,IC50,[37],> 10 µM
same,IC50,[38],> 10 µM
same,IC50,[39],> 10 µM
same,IC50,[40],> 10 µM
same,IC50,[41],> 10 µM
same,IC50,[42],> 10 µM
same,IC50,[43],> 10 µM
same,IC50,[44],> 10 µM
same,IC50,[45],> 10 µM
same,IC50,[46],> 10 µM
same,IC50,[47],> 10 µM
same,IC50,[48],> 10 µM
same,IC50,[49],> 10 µM
same,IC50,[50],> 10 µM
same,IC50,[51],> 10 µM
same,IC50,[52],> 10 µM
CN(C)C/C=C/C(=O)Nc1cc2c(Nc3ccc(F)c(Cl)c3)ncnc2cc1O[C@H]1CCOC1 [AFATINIB],IC50,[1],> 0.5 µM
same,IC50,[2],> 0.5 µM
same,IC50,[3],> 0.5 µM
same,IC50,[4],0.369 µM
same,IC50,[5],> 0.5 µM
same,IC50,[6],> 0.5 µM
same,IC50,[7],> 0.5 µM
same,IC50,[8],> 0.5 µM
same,IC50,[9],> 0.5 µM
same,IC50,[10],> 0.5 µM
same,IC50,[11],> 0.5 µM
same,IC50,[12],> 0.5 µM
same,IC50,[13],> 0.5 µM
same,IC50,[14],> 0.5 µM
same,IC50,[15],> 0.5 µM
same,IC50,[16],0.35 µM
same,IC50,[17],> 0.5 µM
same,IC50,[18],> 0.5 µM
same,IC50,[19],> 0.5 µM
same,IC50,[20],> 0.5 µM
same,IC50,[21],> 0.5 µM
same,IC50,[22],> 0.5 µM
same,IC50,[23],> 0.5 µM
same,IC50,[24],> 0.5 µM
same,IC50,[25],> 0.5 µM
same,IC50,[26],> 0.5 µM
same,IC50,[27],> 0.5 µM
same,IC50,[28],> 0.5 µM
same,IC50,[29],> 0.5 µM
same,IC50,[30],> 0.5 µM
same,IC50,[31],> 0.5 µM
same,IC50,[32],> 0.5 µM
same,IC50,[33],0.407 µM
same,IC50,[34],> 0.5 µM
same,IC50,[35],> 0.5 µM
same,IC50,[36],> 0.5 µM
same,IC50,[37],> 0.5 µM
same,IC50,[38],> 0.5 µM
same,IC50,[39],> 0.5 µM
same,IC50,[40],> 0.5 µM
same,IC50,[41],> 0.5 µM
same,IC50,[42],> 0.5 µM
same,IC50,[43],> 0.5 µM
same,IC50,[44],> 0.5 µM
same,IC50,[45],> 0.5 µM
same,IC50,[46],> 0.5 µM
same,IC50,[47],> 0.5 µM
same,IC50,[48],0.402 µM
same,IC50,[49],> 0.5 µM
same,IC50,[50],> 0.5 µM
same,IC50,[51],> 0.5 µM
same,IC50,[52],> 0.5 µM
